In ChEMBL document CHEMBL3507680, “University of Dundee, Gates Library screen for HepG2 cell viability”:

Experiment: Human HepG2 cell viability assay in 384 well format
Format: toxicity, cell-based
Parameters: dose 125 nL, time 70.5 hour; cytotoxicity at 70.5 h: concentration not given beside the values
Conditions: HepG2 cells, read-out: Inhibition

SMILES | cytotoxicity at 70.5 h [%]
C=C(C)CSc1nnc(CCNC(=O)OC(C)(C)C)o1 | -12.3
CSc1ccc(C(=O)N2CC(=O)N(Cc3ccccc3)CC(O)C2)cc1 (stereo not drawn) | 0.216
COc1ccc(C(=O)N2CC(=O)N(C3CCC3)CC(O)C2)c(OC)c1 (stereo not drawn) | -1.09
O=C(c1cccc(C(F)(F)F)c1)N1CC(=O)N(C2CCC2)CC(O)C1 (stereo not drawn) | -7.16
COc1ccc(C(=O)N2CC(=O)N(CC3CC3)CC(O)C2)cc1 (stereo not drawn) | -4
COc1ccccc1C(=O)N1CC(=O)N(CC2CC2)CC(O)C1 (stereo not drawn) | -0.352
CCOC(=O)N1CCC(OC)c2ccccc2N(CC(=O)NC)C(=O)C1 (stereo not drawn) | -3.27
COCCOC(=O)N1CCN2C[C@@H](CO)[C@H](c3ccccc3)[C@H]2C1 | 0.912
COC(=O)N1CCN2C[C@H](CO)[C@@H](c3ccccc3)[C@H]2C1 | -4.89
COc1ccc2c3c1CN(C(C)=O)CC3=CC(C)(C)CO2 | 0.846
CCNC(=O)N1CC2=CC(C)(C)COc3ccc(OC)c(c32)C1 | -6.22
CC(C)CC(=O)N1CC(=O)N(CCc2ccccc2)CC(O)C1 (stereo not drawn) | 24
CCS(=O)(=O)N1CC(=O)N(Cc2ccccc2OC)CC(O)C1 (stereo not drawn) | 17.6
CCCS(=O)(=O)N1CC(=O)N(Cc2cccc(OC)c2OC)CC(O)C1 (stereo not drawn) | 9.04
COc1cccc(CN2CC(O)CN(S(C)(=O)=O)CC2=O)c1OC (stereo not drawn) | 4.13
CCOC(=O)N1CC(=O)N(Cc2cccc(OC)c2OC)CC(O)C1 (stereo not drawn) | -5.06
COC1CN(C(=O)OCC(C)C)CCC(=O)N(C)c2ccccc21 (stereo not drawn) | -4.55
COC1CN(C(=O)Nc2ccccc2)CCC(=O)N(C)c2ccccc21 (stereo not drawn) | -0.759
COC1CN(C(=O)Cc2cccs2)CCC(=O)N(C)c2ccccc21 (stereo not drawn) | 2.17
CC(=O)N1CCC(=O)N(C2CCCC2)Cc2ccccc21 | 7.97
COCC(=O)N1CCC(=O)N(C2CCCC2)Cc2ccccc21 | 6.82
Cc1nc2ccn(C(C)C)c(=O)c2cc1C(=O)O | -24.7

SMILES | cytotoxicity at 70.5 h [%]
CC(C)Cc1cc(C(=O)O)nc2[nH]c(=O)[nH]c(=O)c12 | -14.3
O=C(O)CCn1ccc(=O)c2ccccc21 | -3.76
O=C(O)CCC(=O)N1CCC(c2noc3cc(F)ccc23)CC1 | -10.8
O=C(O)Cn1ccc(=O)c2cc(F)ccc21 | -10.1
Cc1nc(Oc2ccccc2F)sc1C(=O)O | -11.4
Cc1cccc(S(=O)(=O)N2C[C@H]3C[C@H](C(=O)NC4CCC4)[C@@H](C2)O3)c1 | -10.5
CC(C)NC(=O)C1CCC2(CCN(c3ncccn3)CC2)CO1 (stereo not drawn) | -9.99
CCC(C)N1CCc2c(C(=O)N(C)Cc3ccccn3)nn(C)c2C1 (stereo not drawn) | -7.34
Cc1cccc(S(=O)(=O)N2C[C@H]3C[C@H](C(=O)NCC4CC4)[C@@H](C2)O3)c1 | -0.444
Cc1cccc(S(=O)(=O)N2C[C@H]3C[C@H](C(=O)N(C)C)[C@@H](C2)O3)c1 | 1.15
CC(=O)NCc1noc2c1CN(Cc1cnn(C)c1)CC2 | 2.69
COCC(=O)N1CCC2(CC1)CC(OC)CO2 (stereo not drawn) | -7.5
CCNC(=O)c1ccc2ccc(N(CC)CC)n2c1 | -8.54
Cn1cc(-c2cnc3n2CCC32CCN(S(C)(=O)=O)CC2)cn1 | -0.823
CCC(CC)NC(=O)c1ccc2c(c1)C(c1nc[nH]n1)CN2S(C)(=O)=O (stereo not drawn) | -7.51
CCN(CC)[C@@H]1CN(S(=O)(=O)c2cn(C)cn2)[C@@H]2CCCO[C@H]12 | 26.4
COCC(=O)N1CCC2(CC1)CC(N1CCOCC1)c1ccc(C)cc12 (stereo not drawn) | 0.692
c1ccc(N2CCc3ncnc(C4CC4)c3CC2)nc1 | -12.5
CS(=O)(=O)N1CC(c2nc[nH]n2)c2cc(C(=O)NC3CCCC3)ccc21 (stereo not drawn) | -20.4
CCc1nc(-c2noc3ccc(C(=O)N(C)CCOC)cc23)co1 | -12.2
COc1ccc(CN2CCO[C@H]3CN(C(C)=O)CC[C@H]3C2=O)cc1 | 19.5
CO[C@H]1CN(C(=O)c2ccc3c(c2)OCO3)[C@@H]2COC[C@H]12 | 0.574

SMILES | cytotoxicity at 70.5 h [%]
COCC(=O)N1CCC2(CC1)CC(OC)c1ccc(F)cc12 (stereo not drawn) | -0.706
CS(=O)(=O)N1CCN(CC2CC2)c2ncccc2C1 | -9.41
CCOC1CC2(CCN(C(C)=O)CC2)c2cc(F)ccc21 (stereo not drawn) | -3.98
CC(C)N1[C@H](CN2CCCC2)C[C@@H]2CN(Cc3cnn(C)c3)CC[C@@H]21 | -10.1
O=C(NCC1CC1)C1CCC2(CN(C(=O)c3ccno3)C2)O1 (stereo not drawn) | -13.9
O=C(c1ccno1)N1CC2(CCC(C(=O)N3CCCC3)O2)C1 (stereo not drawn) | -14.7
N#CCC(=O)NCc1nnc2n1CCN(Cc1ccco1)C2 | -13
O=C(c1ccco1)N1CC[C@@H]2O[C@@H](COCC3CCOCC3)CC[C@@H]21 | 11.4
CN(C)C(=O)CN1CCC2(CCCN(c3ncc(F)cn3)C2)C1=O (stereo not drawn) | 16.4
Cn1cc(CN2CCC3(CC2)CCN(Cc2ccccn2)CC3)cn1 | 12
COCCC(=O)N1CCC2(COCc3cnc(NCC4CC4)nc32)C1 (stereo not drawn) | 1.86
CCN1CC2(CC1=O)CN(C(=O)c1cccs1)CCN(C(=O)N(C)C)C2 (stereo not drawn) | -1.77
Cc1oncc1C(=O)N1CCC2(CCN(Cc3cccc(F)c3)C2=O)C1 (stereo not drawn) | -2.01
O=C(C1CC=CC1)N1CCC2(CC1)CNCCO2 | -5.99
COCC(=O)N1CCC2(CCc3ccc(F)cc32)CC1 | -2.02
c1c(CN2CCCC2)nc2n1CCNC2 | 9.22
CC(C)NC(=O)[C@@H]1CC[C@@H]2[C@@H](CCN2Cc2ccc3ccccc3n2)O1 | -8.11
CCC(C)N1Cc2c(C(=O)N3CCCC3)nn(C)c2C1 (stereo not drawn) | -2.34
Cc1ccc(NC2COC3(CCN(CC(C)C)CC3)C2)nn1 (stereo not drawn) | 27.8
CN1CCc2ncc(CNc3cc(N(C)C)ncn3)n2CC1 | -11.9
CCS(=O)(=O)N1CCC2(CCC(N3CCCC3)c3ccccc32)CC1 (stereo not drawn) | -10.6
OCCOCc1nnn2c1CN(c1ncccn1)CCC2 | 8.18

SMILES | cytotoxicity at 70.5 h [%]
CC(C)CCN1Cc2c(C(=O)N3CCCC3)nn(C)c2C1 | 15
CCc1cnc(N2C[C@@H](NC(=O)c3cscn3)[C@H]3COC[C@H]32)nc1 | -11.1
O=C(c1ccccc1)N1CCS(=O)(=O)[C@@H]2CCNCC[C@@H]21 | 3.07
CN1CCC(c2nnc3ccc(C(=O)N4CCCCC4)cn23)C1 (stereo not drawn) | -9.66
Fc1cnc(N2CCCn3c(nnc3Cn3cccc3)C2)nc1 | 27.5
CC(C)CO[C@H]1CN(S(=O)(=O)c2cn(C)cn2)[C@@H]2CCCO[C@H]12 | 18
O=C(c1cccc(Cl)c1)N1CCCC2(CCCNC2)C1 (stereo not drawn) | -1.15
CC(C)n1nc(CNc2ncccn2)c2c1CN(C1CCOCC1)CC2 | -17.3
Cc1cccc(N2CCc3ncnc(C4CC4)c3CC2)n1 | -10.3
O=S(=O)(NC[C@]12COC[C@H]1CN(c1ncc(F)cn1)C2)C1CC1 | 19.1
CCN1CCOCC12CCN(C(=O)c1ccsc1)CC2 | -7.84
CCS(=O)(=O)N1CCCC2(CCCN2Cc2cccc(F)c2)C1 (stereo not drawn) | -8.06
CC(=O)N1CC[C@H]2[C@H](C[C@@H](Cn3cncn3)N2c2nccs2)C1 | -8.31
CCn1ncc2c1C(COCC1CC1)N(C(=O)c1ccncn1)CC2 (stereo not drawn) | -11.3
CN1CCO[C@H]2CN(C(=O)c3ccncc3F)C[C@H]21 | -3.39
Cn1ccnc1CN1CCc2ncnc(N3CCCC3)c2CC1 | -3.33
COCCN1CCC12CCN(C(=O)c1ccsc1)CC2 | -11.4
O=C(c1nc2c(o1)CN(CC1CC1)C2)N1CCCC1 | -13.1
CO[C@H]1CN(Cc2ccc(C)o2)[C@@H]2CCCO[C@H]12 | 13.3
CCOCC1CN(S(=O)(=O)CC)Cc2cnn(CC3CC3)c21 (stereo not drawn) | 6.24
c1cncc(CN2Cc3nccn3CC(Cn3cncn3)C2)c1 (stereo not drawn) | 0.12
c1csc(CN2Cc3nccn3CC(Cn3cncn3)C2)c1 (stereo not drawn) | 2.43

SMILES | cytotoxicity at 70.5 h [%]
CCc1ccc(CN2Cc3nccn3CC(Cn3cncn3)C2)o1 (stereo not drawn) | 2.9
CCOCC1CN(Cc2ccco2)Cc2nccn2C1 (stereo not drawn) | 3.52
Cc1cccc(CN2C(=O)CO[C@@H]3CN(C4CCOCC4)C[C@H]32)c1 | 0.326
O=C(c1ccc(F)cc1)N1CCC2(CCN(Cc3ccccn3)C2=O)C1 (stereo not drawn) | -5.2
Cc1ccc(CN2Cc3nccn3CC(Cn3cncn3)C2)s1 (stereo not drawn) | -1.32
O=C(NC[C@H]1OC[C@@H]2CN(Cc3ccco3)CC[C@@H]21)c1cscn1 | 0.732
CC(=O)NCc1noc2c1CN(CCN1CCCC1)CC2 | -8.27
Cc1cncc(C(=O)N2CC[C@@H]3[C@H]2CCC(=O)N3CCN(C)C)c1 | 2.21
CN(C)CCN1CCO[C@H]2CCN(C(=O)c3cccs3)CC[C@@H]21 | 32.1
Fc1cnc(N2CCCn3c(CN4CCOCC4)nnc3C2)nc1 | 25.5
Cn1nc(CN2CCOCC2)c2c1CN(Cc1ccsc1)C2 | -5.85
Cc1ccc(CN2C[C@@H](N(C)C)[C@H]3OCCC[C@H]32)o1 | 1.56
Cc1ccc(CN2CC[C@H]3[C@H]2CC(=O)N3c2cccnc2)o1 | 8.92
CCOCC1CN(CCN(C)C)Cc2cnn(CC3CCCC3)c21 (stereo not drawn) | 4.97
CCOCC1CN(C2CCCC2)Cc2cnn(CC3CCOCC3)c21 (stereo not drawn) | 2.06
CN(Cc1ccccn1)C(=O)c1nn(C)c2c1CCN(CC1CC1)C2 | -1.96
CN1CCN(C2COC3(CCN(CC4CC4)CC3)C2)CC1 (stereo not drawn) | 0.151
Cc1cnc(N2C[C@H]3C[C@H](C(=O)N4CCN(C)CC4)N(C)[C@H]3C2)nc1 | -9.1
Fc1cccc(O[C@@H]2C[C@H]3CN(Cc4ccncc4)CCN3C2)c1 | -15.6
CC(C)N1[C@H](Cn2cccn2)C[C@@H]2CN(Cc3ccoc3)CC[C@@H]21 | -13.4
